PubChem BioAssay (NCI)
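Grown in 96-well plates, cells were treated for 48 hours with each compound at five concentrations. Insufficient inhibition: endpoint recorded as highest concentration tested. GI50 marks 50% less growth. TGI marks complete inhibition of growth.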

What was measured:
Test in all cases: NCI anticancer screen, dose series, 48 h
[1] = test system: HS 578T breast
[2] = test system: HCT-15 colon
[3] = test system: HCC-2998 colon
[4] = test system: COLO 205 colon
[5] = test system: ACHN renal
[6] = test system: 786-0 renal
[7] = test system: CAKI-1 renal
[8] = test system: SW-620 colon
[9] = test system: RPMI-8226 leukemia
[10] = test system: LOX IMVI melanoma
[11] = test system: SF-268 CNS
[12] = test system: CCRF-CEM leukemia
[13] = test system: HT29 colon
[14] = test system: KM12 colon
[15] = test system: HCT-116 colon
[16] = test system: OVCAR-4 ovarian
[17] = test system: SK-MEL-2 melanoma
[18] = test system: UO-31 renal
[19] = test system: SN12C renal
[20] = test system: NCI-H460 lung
[21] = test system: SF-295 CNS
[22] = test system: RXF 393 renal
[23] = test system: SF-539 CNS
[24] = test system: EKVX NSCLC
[25] = test system: PC-3 prostate
[26] = test system: BT-549 breast
[27] = test system: MALME-3M melanoma
[28] = test system: A549 NSCLC
[29] = test system: DU-145 prostate
[30] = test system: U251 CNS
[31] = test system: OVCAR-3 ovarian
[32] = test system: NCI-H522 lung
[33] = test system: SK-MEL-28 melanoma
[34] = test system: OVCAR-8 ovarian
[35] = test system: MDA-MB-231 breast
[36] = test system: HOP-92 NSCLC
[37] = test system: SNB-75 CNS
[38] = test system: NCI-H226 lung
[39] = test system: SNB-19 CNS
[40] = test system: MOLT-4 leukemia
[41] = test system: SK-MEL-5 melanoma
[42] = test system: MDA-MB-435
[43] = test system: UACC-257 melanoma
[44] = test system: OVCAR-5 ovarian
[45] = test system: MCF7 breast
[46] = test system: HL-60(TB) leukemia
[47] = test system: IGROV1 ovarian
[48] = test system: NCI-H23 lung
[49] = test system: T-47D breast
[50] = test system: NCI/ADR-RES ovarian
[51] = test system: UACC-62 melanoma
[52] = test system: M14 melanoma
[53] = test system: TK-10 renal
[54] = test system: SK-OV-3 ovarian
[55] = test system: HOP-62 NSCLC
[56] = test system: K-562 leukemia
[57] = test system: A498 renal

COc1cc2c(cc1OCCCCCN1CCN(c3cc(=O)oc4ccccc34)CC1)N=C[C@@H]1CCCN1C2=O
GI50 [1]: 0.201 µM
TGI [1]: 1.84 µM
GI50 [2]: 1.02 µM
TGI [2]: 7.27 µM
GI50 [3]: 0.176 µM
TGI [3]: 0.398 µM
GI50 [4]: 0.0422 µM
TGI [4]: 0.28 µM
GI50 [5]: 0.461 µM
TGI [5]: 2.55 µM
GI50 [6]: 0.147 µM
TGI [6]: 0.468 µM
GI50 [7]: 0.556 µM
TGI [7]: 1.86 µM
GI50 [8]: 0.242 µM
TGI [8]: 6.66 µM
GI50 [9]: < 0.039 µM
TGI [9]: 0.285 µM
GI50 [10]: < 0.0387 µM
TGI [10]: 0.45 µM
TGI [11]: 2.47 µM
GI50 [12]: 0.124 µM
TGI [12]: 0.364 µM
GI50 [13]: 0.0841 µM
TGI [13]: 0.61 µM
GI50 [14]: 0.268 µM
TGI [14]: 1.38 µM
GI50 [15]: 0.0889 µM
TGI [15]: 0.336 µM
GI50 [16]: 0.358 µM
TGI [16]: 1.71 µM
GI50 [17]: 0.198 µM
TGI [17]: 0.533 µM
GI50 [18]: 0.69 µM
TGI [18]: 11.4 µM
GI50 [19]: 0.182 µM
TGI [19]: 0.664 µM
GI50 [20]: 0.131 µM
TGI [20]: 9.99 µM
GI50 [21]: 0.331 µM
TGI [21]: 3.16 µM
GI50 [22]: 0.0629 µM
TGI [22]: 0.253 µM
GI50 [23]: 0.232 µM
TGI [23]: 0.907 µM
GI50 [24]: 0.848 µM
TGI [24]: 4.65 µM
GI50 [25]: 0.0918 µM
TGI [25]: 2.34 µM
GI50 [26]: 0.158 µM
TGI [26]: 0.778 µM
GI50 [27]: 0.219 µM
TGI [27]: 0.536 µM
GI50 [28]: 2.56 µM
TGI [28]: 11.5 µM
GI50 [29]: 0.221 µM
TGI [29]: 3.55 µM
GI50 [30]: 0.0633 µM
TGI [30]: 2.32 µM
GI50 [31]: 0.263 µM
TGI [31]: 0.653 µM
GI50 [32]: < 0.0428 µM
TGI [32]: 0.17 µM
GI50 [33]: 0.437 µM
TGI [33]: 1.34 µM
GI50 [34]: 0.293 µM
TGI [34]: 19.9 µM
GI50 [35]: 0.0277 µM
TGI [35]: 0.73 µM
TGI [36]: 0.178 µM
TGI [37]: 0.343 µM
GI50 [38]: 0.184 µM
TGI [38]: 0.485 µM
GI50 [39]: 0.294 µM
TGI [39]: 12.5 µM
GI50 [40]: 0.0117 µM
TGI [40]: 1.41 µM
GI50 [41]: 0.206 µM
TGI [41]: 0.481 µM
GI50 [42]: 0.183 µM
TGI [42]: 0.425 µM
GI50 [43]: 1.59 µM
TGI [43]: 5.69 µM
GI50 [44]: 0.407 µM
TGI [44]: 18.6 µM
GI50 [45]: 0.093 µM
TGI [45]: 4.95 µM
GI50 [46]: < 0.0453 µM
TGI [46]: 1.12 µM
GI50 [47]: 0.083 µM
TGI [47]: 0.401 µM
GI50 [48]: 0.262 µM
TGI [48]: 1.1 µM
TGI [49]: 2.28 µM
GI50 [50]: 1.91 µM
TGI [50]: > 22 µM
GI50 [51]: 0.186 µM
TGI [51]: 0.383 µM
GI50 [52]: 0.0965 µM
TGI [52]: 0.338 µM
GI50 [53]: 0.175 µM
TGI [53]: 13 µM
GI50 [54]: 0.821 µM
TGI [54]: > 41.3 µM
GI50 [55]: 0.151 µM
TGI [55]: 0.438 µM
GI50 [56]: < 0.0411 µM
TGI [56]: 3.06 µM
GI50 [57]: 0.22 µM
TGI [57]: 0.488 µM
